According to patent US20140357713A1, “ANTIMICROBIAL COMPOUNDS AND METHODS OF USE” (NexMed Holdings, Inc., priority 2012, published 2014):
Values after ≈ are worked out from the molar mass of the structure shown. Where a name gives a salt, the structure may show the parent alone. Read-outs that look alike come from different tables or passages of the source.

Columns and labels:
[1] = system: Escherichia coli (ATCC 25922); assay: Minimum inhibitory concentration (MIC) assay, Example 33; type: cell-based
Method: (§1) Thirty compounds were tested for antimicrobial activity using standard procedures and standard strains for both the minimum inhibitory concentration (MIC) assay and a time kill study. Both the MIC assay and the time kill study were performed according to Clinical and Laboratory Standards Institute (CLSI) guidelines. Three bacteria strains, Escherichia coli (ATCC 25922), Pseudomonas aeruginosa (ATCC 27853), Staphulococcus aureus (ATCC 29213), and two fungus strains, Candida albicans (ATCC 90029) and Aspergillus niger (CMCC 98003), were used in the experiments.
(§2) Preparation of cultures. Before the experiment, two days for the bacteria strains and five days for fungus strains, an aliquot was removed from the cultures frozen at −80° C. Medium was added to the surface of an appropriate agar plate and streaked with the aliquot. The plate was incubated for 20 to 24 hrs at 35±2° C. for bacteria or for 5 days at 26-30° C. in incubator for fungus. From the resulting growth on each plate, one isolated colony of similar morphology was selected and re-streaked onto a fresh agar plate using a sterile disposable loop. The plate was incubated 20 to 24 hrs at 35±2° C. or for 5 days at 26-30° C. in an incubator.
(§3) Preparation of Assay Plates with Medium and Drugs. On the day of the assay, CAMHB medium or RPMI 1640 medium was removed from 4′C storage and allowed to reach room temperature. Ninety microliters (μL) of room temperature CAMHB or RPMI 1640 (supplemented with the appropriate concentration of DMSO, if required) were added to rows B-G of each 96-well microtiter plate. Using a pipette, duplicate 180 μL aliquots of each drug stock solution were added to column 1 (e.g. A1 and B1 or C1 and D1 or E1 and F1 or G1 and H1). Using a multichannel pipette or the Provision 2000 liquid handler, serial 2-fold dilutions (90 μL) were performed in each row across the plate to row G. Eighty μL of compounds dilutions were transferred to a 96-deep well plate. Medium, 1,520 μL of CAMHB or RPMI 1640, was added to each well. The contents of the wells were mixed thoroughly. A 50 μL aliquot of each of the resulting mixtures was transferred to a 96-well assay plate.
(§4) For bacteria, a sterile inoculating loop was used to transfer growth from an agar plate culture into about 5 mL of test medium. Using a turbidity meter, this inoculum was adjusted so that its density (600 nm) was equivalent to a 0.5 McFarland barium sulfate standard (0.08-0.13). The resulting suspension was diluted 1:100 into medium to obtain two times test inoculums.
(§5) For Aspergillus niger, sporulating colonies were covered with RPMI 1640, and a suspension was prepared by gently probing the colonies with the tip of a transfer pipette. The suspension was transferred to a sterile tube and mixed with a vortex mixer for 15 seconds. The densities at 530 nm were adjusted to 0.09-0.13 for each sample. The resulting suspension was diluted 1:50 with the medium to obtain two times test inoculums. Fifty μL/well of this inoculum suspension was added to wells of drug-containing plates (1:2 dilution). Plates were incubated at 35° C. for the appropriate times. The MIC was read and recorded according to CLSI guidelines.
(§6) The MIC values for thirty compounds against Escherichia coli, Pseudomonas aeruginosa, Staphulococcus aureus, Candida albicans, and Aspergillus niger were recorded and are presented in Table 3 and Table 4.

[2] = system: Pseudomonas aeruginosa (ATCC 27853); assay: as above; type: cell-based; settings: for MIC: Table 19 summary
Method: as §1, §2, §3, §4, §5, §6

[3] = pH (Table 1); type: physicochemical
[4] = system: Staphulococcus aureus (ATCC 29213); assay: Minimum inhibitory concentration (MIC) assay, Example 33; type: cell-based, Staphylococcus aureus
Method: as §1, §2, §3, §4, §5, §6

[5] = system: Aspergillus niger (CMCC 98003); assay: as above; type: cell-based
Method: as §1, §2, §3, §5, §6

[6] = system: Staphylococcus aureus (ATCC 29213); assay: Time kill study, Example 33 (0 to 5 min); type: cell-based; settings: 1×MIC
Method: as §1
(§7) The viable counts in Log10 CFU/mL at each time point were recorded.
(§8) Time kill studies. Strain suspensions were prepared as described above for the MIC test, and strain suspensions and compound solutions were mixed in the same volume. Samples were removed at specified times including 0 min, 30 sec, 1 min and 5 mins, were diluted in the test medium and streaked on agar. Colonies were counted after 24 to 48 hrs of incubation. […]

[7] = system: Candida albicans (ATCC 90029); assay: Time kill study, Example 33 (0 to 5 min); type: cell-based; settings: 1×MIC, phosphate
Method: as §1, §7, §8

[8] = system: Candida albicans (ATCC 90029); assay: Minimum inhibitory concentration (MIC) assay, Example 33; type: cell-based; settings: for MIC: Table 19 summary
Method: as §1, §2, §3
For Candida albicans, a sterile inoculating loop was used to transfer growth from an agar plate culture into a tube with RPMI1640 medium. This inoculum was adjusted so that its density at 530 nm was in the ranges from 0.08 to 0.13. The resulting suspension was diluted 1:50 and further diluted 1:20 with the medium to obtain two times test inoculums.
as §5, §6

[9] = system: Escherichia coli (ATCC 25922); assay: Time kill study, Example 33 (0 to 5 min); type: cell-based; settings: 1×MIC
Method: as §1, §7, §8

[10] = system: Pseudomonas aeruginosa (ATCC 27853); assay: Time kill study, Example 33 (0 to 5 min); type: cell-based; settings: 1×MIC
Method: as §1, §7, §8

Question: With `CCCCCCCCCCCCOC(=O)C(C)N(C)C` (stereo not shown) [Nex-15, Dodecyl 2-(dimethylamino)propanoate phosphate] as the compound, how does the “MIC (mg/ml)” value ([1]; Table 19 summary of Example 33 and Example 35, phosphate) read?
Answer: ≧12.5 mg/ml

Question: What about the “MIC E. coli” value ([1]; n = 1, phosphate) of the same compound?
Answer: >12500 µg/mL

Question: What about the “MIC E. coli” value ([1]; n = 2, phosphate) of the same compound?
Answer: >12500 µg/mL

Question: And the “MIC” value ([2]; phosphate)?
Answer: >12500 µg/mL

Question: And the “MIC P. aeruginosa” value ([2]; n = 1, phosphate)?
Answer: >12500 µg/mL

Question: And the “MIC P. aeruginosa” value ([2]; n = 2, phosphate)?
Answer: >12500 µg/mL

Question: What about the pH ([3]; phosphate) of the same compound?
Answer: 2.01

Question: And the “MIC S. aureus” value ([4]; n = 1, phosphate)?
Answer: 390 µg/mL

Question: What about the “MIC S. aureus” value ([4]; n = 2, phosphate) of the same compound?
Answer: 200 µg/mL

Question: What about the “MIC” value ([5]; Table 19 summary, phosphate) of the same compound?
Answer: 12500 µg/mL

Question: What about the “MIC Aspergillus niger” value ([5]; n = 1, phosphate) of the same compound?
Answer: 12500 µg/mL

Question: And the “Viable counts, Staphylococcus aureus time kill study” value ([6]; 0.5 min, phosphate)?
Answer: 6.16 Log10 CFU/mL

Question: What about the “Viable counts, Staphylococcus aureus time kill study” value ([6]; 1 min, phosphate) of the same compound?
Answer: 6.14 Log10 CFU/mL

Question: And the “Viable counts, Staphylococcus aureus time kill study” value ([6]; 5 min, phosphate)?
Answer: 6.14 Log10 CFU/mL

Question: What about the “Viable counts, Staphylococcus aureus time kill study” value ([6]; time 0, phosphate) of the same compound?
Answer: 6.23 Log10 CFU/mL

Question: And the “Viable counts, Candida albicans time kill study” value ([7]; 0.5 min)?
Answer: 5.23 Log10 CFU/mL

Question: What about the “Viable counts, Candida albicans time kill study” value ([7]; 1 min) of the same compound?
Answer: 5.25 Log10 CFU/mL

Question: And the “Viable counts, Candida albicans time kill study” value ([7]; 5 min)?
Answer: 5.28 Log10 CFU/mL

Question: What about the “Viable counts, Candida albicans time kill study” value ([7]; time 0) of the same compound?
Answer: 5.12 Log10 CFU/mL

Question: What about the “MIC” value ([8]; phosphate) of the same compound?
Answer: 50 µg/mL

Question: What about the “MIC Candida albicans” value ([8]; n = 1, phosphate) of the same compound?
Answer: 50 µg/mL

Question: And the “MIC Candida albicans” value ([8]; n = 2, phosphate)?
Answer: 50 µg/mL

Question: Which “MIC” value ([1]; Table 19 summary of Example 33 and Example 35) does the source give for `CCCCCCCCCCCCOC(=O)C(C)N(C)C` (stereo not shown) [Nex-46, Dodecyl 2-(dimethylamino)propanoate 2-hydroxyethanesulfonate] here?
Answer: 3130 µg/mL (≈ 11 mM)

Question: What about the “MIC E. coli” value ([1]; n = 1) of the same compound?
Answer: 3130 µg/mL (≈ 11 mM)

Question: And the “MIC E. coli” value ([1]; n = 2)?
Answer: 3130 µg/mL (≈ 11 mM)

Question: And the “MIC” value [2]?
Answer: 6250 µg/mL (≈ 21.9 mM)

Question: What about the “MIC P. aeruginosa” value ([2]; n = 1) of the same compound?
Answer: 6250 µg/mL (≈ 21.9 mM)

Question: And the “MIC P. aeruginosa” value ([2]; n = 2)?
Answer: 6250 µg/mL (≈ 21.9 mM)

Question: What about the pH [3] of the same compound?
Answer: 2.95

Question: And the “MIC” value ([4]; Table 19 summary)?
Answer: 3130 µg/mL (≈ 11 mM)

Question: And the “MIC S. aureus” value ([4]; n = 1)?
Answer: 3130 µg/mL (≈ 11 mM)

Question: What about the “MIC S. aureus” value ([4]; n = 2) of the same compound?
Answer: 3130 µg/mL (≈ 11 mM)

Question: What about the “MIC” value ([5]; Table 19 summary) of the same compound?
Answer: >12500 µg/mL

Question: What about the “MIC Aspergillus niger” value ([5]; n = 1) of the same compound?
Answer: >12500 µg/mL

Question: What about the “MIC Aspergillus niger” value ([5]; n = 2) of the same compound?
Answer: >12500 µg/mL

Question: And the “Viable counts, Staphylococcus aureus time kill study” value ([6]; 0.5 min)?
Answer: 6.25 Log10 CFU/mL

Question: What about the “Viable counts, Staphylococcus aureus time kill study” value ([6]; 1 min) of the same compound?
Answer: 6.21 Log10 CFU/mL

Question: And the “Viable counts, Staphylococcus aureus time kill study” value ([6]; 5 min)?
Answer: 6.21 Log10 CFU/mL

Question: What about the “Viable counts, Staphylococcus aureus time kill study” value ([6]; time 0) of the same compound?
Answer: 6.26 Log10 CFU/mL

Question: What about the “Viable counts, Escherichia coli time kill study” value ([9]; 0.5 min) of the same compound?
Answer: 5.74 Log10 CFU/mL

Question: What about the “Viable counts, Escherichia coli time kill study” value ([9]; 1 min) of the same compound?
Answer: 5.91 Log10 CFU/mL

Question: And the “Viable counts, Escherichia coli time kill study” value ([9]; 5 min)?
Answer: 3.97 Log10 CFU/mL

Question: And the “Viable counts, Escherichia coli time kill study” value ([9]; time 0)?
Answer: 5.87 Log10 CFU/mL

Question: And the “Viable counts, Pseudomonas aeruginosa time kill study” value ([10]; 0.5 min)?
Answer: 4.48 Log10 CFU/mL

Question: What about the “Viable counts, Pseudomonas aeruginosa time kill study” value ([10]; 1 min) of the same compound?
Answer: 3.7 Log10 CFU/mL

Question: What about the “Viable counts, Pseudomonas aeruginosa time kill study” value ([10]; 5 min) of the same compound?
Answer: <3.52 Log10 CFU/mL

Question: And the “Viable counts, Pseudomonas aeruginosa time kill study” value ([10]; time 0)?
Answer: 5.67 Log10 CFU/mL

Question: And the “MIC” value [8]?
Answer: >12500 µg/mL

Question: What about the “MIC Candida albicans” value ([8]; n = 1) of the same compound?
Answer: >12500 µg/mL

Question: What about the “MIC Candida albicans” value ([8]; n = 2) of the same compound?
Answer: >12500 µg/mL

Question: Which results are given for `CCCCCCCCCCCCOC(=O)C(C)N(C)C` (stereo not shown) [Nex-20, Dodecyl 2-(dimethylamino)propanoate maleate]?
Answer: MIC ([1]; Table 19 summary of Example 33 and Example 35, maleate): 1560 µg/mL; MIC E. coli ([1]; n = 1, maleate): 1560 µg/mL; MIC E. coli ([1]; n = 2, maleate): 1560 µg/mL; MIC ([2]; maleate): 6250 µg/mL; MIC P. aeruginosa ([2]; n = 1, maleate): 6250 µg/mL; MIC P. aeruginosa ([2]; n = 2, maleate): 6250 µg/mL; pH ([3]; maleate): 3.39; MIC S. aureus ([4]; n = 1, maleate): 3130 µg/mL; MIC S. aureus ([4]; n = 2, maleate): 1560 µg/mL; MIC ([5]; Aspergillus niger, CMCC98003, Table 19 summary, read-out: MIC): > 12500 µg/mL; MIC Aspergillus niger ([5]; n = 1, maleate): >12500 µg/mL; Viable counts, Staphylococcus aureus time kill study ([6]; 0.5 min, maleate): 6.18 Log10 CFU/mL; Viable counts, Staphylococcus aureus time kill study ([6]; 1 min, maleate): 6.15 Log10 CFU/mL; Viable counts, Staphylococcus aureus time kill study ([6]; 5 min, maleate): 5.61 Log10 CFU/mL; Viable counts, Staphylococcus aureus time kill study ([6]; time 0, maleate): 6.15 Log10 CFU/mL; Viable counts, Escherichia coli time kill study ([9]; 0.5 min, maleate): 5.84 Log10 CFU/mL; Viable counts, Escherichia coli time kill study ([9]; 1 min, maleate): 5.92 Log10 CFU/mL; Viable counts, Escherichia coli time kill study ([9]; 5 min, maleate): 4.37 Log10 CFU/mL; Viable counts, Escherichia coli time kill study ([9]; time 0, maleate): 5.86 Log10 CFU/mL; Viable counts, Pseudomonas aeruginosa time kill study ([10]; 0.5 min, maleate): <4.0 Log10 CFU/mL; Viable counts, Pseudomonas aeruginosa time kill study ([10]; 1 min, maleate): 3.7 Log10 CFU/mL; Viable counts, Pseudomonas aeruginosa time kill study ([10]; 5 min): <3.52 Log10 CFU/mL; Viable counts, Pseudomonas aeruginosa time kill study ([10]; time 0, maleate): 5.56 Log10 CFU/mL; MIC ([8]; maleate): 12500 µg/mL; MIC Candida albicans ([8]; n = 1, maleate): 12500 µg/mL; MIC Candida albicans ([8]; n = 2, maleate): 12500 µg/mL
